According to US9624233B2, “Compounds for treating pruritic conditions” (priority 2015, dated 2017):

Biological target: T1, 5-HT3 (h) (Homo sapiens, UniProt P46098)
T1 sequence (P46098 24-478): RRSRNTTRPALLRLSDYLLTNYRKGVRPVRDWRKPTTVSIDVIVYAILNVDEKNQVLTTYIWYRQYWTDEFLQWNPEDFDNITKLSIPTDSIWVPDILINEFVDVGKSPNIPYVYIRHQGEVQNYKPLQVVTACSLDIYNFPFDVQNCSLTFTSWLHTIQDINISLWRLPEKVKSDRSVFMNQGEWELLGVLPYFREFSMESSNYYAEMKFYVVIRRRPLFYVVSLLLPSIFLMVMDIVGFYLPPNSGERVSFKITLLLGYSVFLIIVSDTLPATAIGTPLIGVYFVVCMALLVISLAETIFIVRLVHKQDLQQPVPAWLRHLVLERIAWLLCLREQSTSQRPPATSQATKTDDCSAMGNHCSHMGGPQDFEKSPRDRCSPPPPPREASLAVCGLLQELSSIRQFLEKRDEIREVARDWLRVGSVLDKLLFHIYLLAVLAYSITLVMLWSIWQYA
Experiment: Abuse liability binding screen, 5-HT3 (h) (antagonist radioligand)
Details: 2.5E−05M
Method: […]. The abuse liability screen included 44 targets (receptors, transporters, on gated-channel systems) related to the dopamine, norepinephrine, serotonin, gamma-aminobutyric acid (GABA), acetylcholine, N-methyl-D-aspartate (NMDA) cannabinoid and opioid neurotransmitter systems as recommended in FDA Draft guidance on Assessment of Abuse Potential of Drugs, January 2010.
Compound binding was calculated as a % inhibition of the binding of a radioactively labeled ligand specific for each target.
Results showing an inhibition or stimulation higher than 50% are considered to represent significant effects of the test compounds.

O=C(O)[C@H]1O[C@@H](Oc2ccc3c4c2O[C@H]2[C@@H](O)CC[C@@]5(O)[C@@H](C3)N(CC3CCC3)CC[C@]425)[C@H](O)[C@@H](O)[C@@H]1O [Compound M5, nalbuphine-3-beta-D-glucuronid]
% Inhibition of Control Specific Binding 1st: 3.2% | % Inhibition of Control Specific Binding 2nd: 10.9% | % Inhibition of Control Specific Binding Mean: 7.0%
